Key:
humans = details: limited trials in humans (Clarkson 1995; Powers and Lennon 1999); cited from earlier work
tocopherol-depleted rats = details: rats fed tocopherol for two weeks after chronic iron-dextran (Dillard et al., 1983); cited from earlier work
rodent = rodent (Novelli et al., 1990); cited from earlier work
[1] = cited from earlier work; for absorption by the gut: Traber et al., 1992
[2] = liposomal tocopherol exposed to synthetic peroxynitrite (Christen et al., 1997); cited from earlier work
[3] = system: Normal, nontransgenic (NonTg) C57/B6 mice; assay: rotorod performance task (motor function); format: in vivo; details: diet supplemented with additional 200 mg/kg tocopherol from 40 days of age; versus basal diet or α-tocopherol supplemented diet
Experimental: Normal, nontransgenic (NonTg) C57/B6 mice were studied for efficacy of γT on motor performance and/or enhanced muscle function. Beginning at 40 days of age, animals were fed a basal AIN93G laboratory animal diet containing 75 mg/kg α-tocopherol and negligible γ-tocopherol; or the same diet supplemented with an additional 200 mg/kg α-tocopherol or γ-tocopherol. Motor function was measured by a standard rotorod performance task (Klivenyi et al., 1999). Animals were placed on a motorized, rubber-coated metal rod that was set to rotate at 1 rpm increasing by 1 rpm every 10 seconds (Klivenyi et al., 1999). The speed of the rod rotation at which the mouse falls off is taken as a measure of motor competency (Klivenyi et al., 1999). Each mouse was tested in three trials every 10 days.

[4] = system: methylcholanthrene-treated C3H/10T1/2 fibroblasts; details: methylcholanthrene-treated C3H/10T1/2 fibroblasts (Cooney et al., 1993); cited from earlier work
[5] = relative to the corresponding reaction of αT (Cooney et al., 1993); cited from earlier work
[6] = system: iron-induced lipid peroxidation and occlusive thrombus formation; details: Saldeen et al., 1999; cited from earlier work

SMILES | muscle endurance (humans) | inhibition of systemic lipid oxidation (tocopherol-depleted rats) | endurance during a swimming test (rodent) | absorption by the gut [1] | effectiveness at inhibiting systemic lipid oxidation relative to αT (tocopherol-depleted rats) | effectiveness at inhibiting lipid hydroperoxide formation relative to αT [2] | capability of performing the motor function task (rotorod) [3] | effectiveness at inhibiting neoplastic transformation relative to αT [4] [fold] | rate of in vitro reaction with NO2 gas relative to αT [5] [times] | packaging into lipoproteins ([1]; relative to αT (Traber et al., 1992)) | potency at inhibition of iron-induced lipid peroxidation and occlusive thrombus formation relative to αT [6]
Cc1c(C)c2c(c(C)c1O)CC[C@@](C)(CCC[C@H](C)CCC[C@H](C)CCCC(C)C)O2 [α-tocopherol, reference compound] | did not extend muscle endurance | inhibited systemic lipid oxidation | extended rodent endurance | absorbed equally well | – | – | – | – | – | – | –
Cc1c(O)cc2c(c1C)O[C@](C)(CCC[C@H](C)CCC[C@H](C)CCCC(C)C)CC2 [γ-tocopherol] | – | inhibited systemic lipid oxidation | – | absorbed equally well | approximately 35% | twice as effective | significantly more capable of performing the motor function task | 4 | 6 | less effectively | 20-30 times

Source: US20040034093A1, “Methods for enhancing motor performance and/or endurance” (priority 2002, published 2004)
